Measured values as given in doi:10.1101/2020.07.01.182642v1 (biorxiv, 2020).
Each block holds one compound with its values, some of them ahead of it.

Key:
Settings in all cases: binder
AAK1 = AAK1 (Homo sapiens, UniProt Q2M2I8)
CAMK1G = CAMK1G (Homo sapiens, UniProt Q96NX5)
CDK16 = CDK16 (Homo sapiens, UniProt Q00536)
CDK8 = CDK8 (Homo sapiens, UniProt P49336)
CHEK2 = CHEK2 (Homo sapiens, UniProt O96017)
CLK2 = CLK2 (Homo sapiens, UniProt P49760)
CSNK1G1 = CSNK1G1 (Homo sapiens, UniProt Q9HCP0)
CSNK2A1 = CSNK2A1 (Homo sapiens, UniProt P68400)
DYRK2 = target: T1, DYRK2 (Homo sapiens, UniProt Q92630)
T1 sequence (Q92630 1-601): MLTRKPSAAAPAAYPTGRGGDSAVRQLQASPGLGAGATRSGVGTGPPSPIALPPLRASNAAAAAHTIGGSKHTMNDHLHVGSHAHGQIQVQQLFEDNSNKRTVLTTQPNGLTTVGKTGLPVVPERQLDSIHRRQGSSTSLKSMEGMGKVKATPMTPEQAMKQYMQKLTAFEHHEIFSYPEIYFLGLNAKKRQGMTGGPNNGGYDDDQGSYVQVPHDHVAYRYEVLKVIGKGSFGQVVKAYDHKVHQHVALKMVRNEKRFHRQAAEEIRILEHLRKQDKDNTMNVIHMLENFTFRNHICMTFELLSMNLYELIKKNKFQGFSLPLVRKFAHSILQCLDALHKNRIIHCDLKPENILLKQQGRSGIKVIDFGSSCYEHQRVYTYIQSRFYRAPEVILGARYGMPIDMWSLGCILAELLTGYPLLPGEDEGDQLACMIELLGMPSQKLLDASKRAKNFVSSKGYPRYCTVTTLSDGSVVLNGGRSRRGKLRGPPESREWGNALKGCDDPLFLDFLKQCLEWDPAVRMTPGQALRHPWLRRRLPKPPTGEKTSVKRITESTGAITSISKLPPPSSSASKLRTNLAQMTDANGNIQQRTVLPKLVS

MYLK4 = target: T2, MYLK4 (Homo sapiens, UniProt Q86YV6)
T2 sequence (Q86YV6 1-388): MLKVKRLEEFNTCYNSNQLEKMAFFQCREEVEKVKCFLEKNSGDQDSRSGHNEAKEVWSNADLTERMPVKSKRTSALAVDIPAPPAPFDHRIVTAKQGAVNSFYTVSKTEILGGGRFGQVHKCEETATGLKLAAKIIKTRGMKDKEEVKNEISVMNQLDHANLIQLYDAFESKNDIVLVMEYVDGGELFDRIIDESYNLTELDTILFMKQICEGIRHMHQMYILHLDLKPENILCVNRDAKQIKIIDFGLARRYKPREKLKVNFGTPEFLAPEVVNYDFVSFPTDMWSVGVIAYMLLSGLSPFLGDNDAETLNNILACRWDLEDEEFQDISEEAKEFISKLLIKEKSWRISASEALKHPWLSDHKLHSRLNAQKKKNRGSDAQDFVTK

PKN1 = PKN1 (Homo sapiens, UniProt Q16512)
RPS6KA2 = RPS6KA2 (Homo sapiens, UniProt Q15349)
SRPK3 = SRPK3 (Homo sapiens, UniProt Q9UPE1)
STK17B = target: T3, STK17B (Homo sapiens, UniProt O94768)
T3 sequence (O94768 1-372): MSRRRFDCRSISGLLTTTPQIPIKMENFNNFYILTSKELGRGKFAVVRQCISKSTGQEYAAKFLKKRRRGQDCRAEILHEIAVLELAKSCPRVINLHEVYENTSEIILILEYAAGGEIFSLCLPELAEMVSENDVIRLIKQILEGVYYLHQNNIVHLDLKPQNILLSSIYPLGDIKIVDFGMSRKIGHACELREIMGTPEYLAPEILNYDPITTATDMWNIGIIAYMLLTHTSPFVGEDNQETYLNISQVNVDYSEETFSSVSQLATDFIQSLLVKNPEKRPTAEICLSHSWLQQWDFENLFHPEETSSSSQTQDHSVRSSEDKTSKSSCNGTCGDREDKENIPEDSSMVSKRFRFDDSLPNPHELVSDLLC

STK26 = STK26 (Homo sapiens, UniProt Q9P289)
TNIK = TNIK (Homo sapiens, UniProt Q9UKE5)
VRK2 = VRK2 (Homo sapiens, UniProt Q86Y07)
ZAK = ZAK (Homo sapiens, UniProt Q9NYL2)

Chain of CDK8 (P49336 whole entry): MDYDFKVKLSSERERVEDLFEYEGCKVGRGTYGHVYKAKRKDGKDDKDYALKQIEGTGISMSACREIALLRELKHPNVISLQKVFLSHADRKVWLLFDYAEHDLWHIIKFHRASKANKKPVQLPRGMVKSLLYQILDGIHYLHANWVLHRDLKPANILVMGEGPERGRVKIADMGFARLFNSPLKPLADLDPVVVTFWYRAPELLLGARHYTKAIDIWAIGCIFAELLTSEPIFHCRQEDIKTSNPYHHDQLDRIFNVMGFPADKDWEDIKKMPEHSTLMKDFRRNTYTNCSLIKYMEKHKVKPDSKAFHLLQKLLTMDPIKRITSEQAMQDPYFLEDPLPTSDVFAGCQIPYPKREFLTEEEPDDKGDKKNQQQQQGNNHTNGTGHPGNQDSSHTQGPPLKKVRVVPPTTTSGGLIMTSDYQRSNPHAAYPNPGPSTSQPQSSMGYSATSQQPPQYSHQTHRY
Chain of AAK1 (Q2M2I8 whole entry): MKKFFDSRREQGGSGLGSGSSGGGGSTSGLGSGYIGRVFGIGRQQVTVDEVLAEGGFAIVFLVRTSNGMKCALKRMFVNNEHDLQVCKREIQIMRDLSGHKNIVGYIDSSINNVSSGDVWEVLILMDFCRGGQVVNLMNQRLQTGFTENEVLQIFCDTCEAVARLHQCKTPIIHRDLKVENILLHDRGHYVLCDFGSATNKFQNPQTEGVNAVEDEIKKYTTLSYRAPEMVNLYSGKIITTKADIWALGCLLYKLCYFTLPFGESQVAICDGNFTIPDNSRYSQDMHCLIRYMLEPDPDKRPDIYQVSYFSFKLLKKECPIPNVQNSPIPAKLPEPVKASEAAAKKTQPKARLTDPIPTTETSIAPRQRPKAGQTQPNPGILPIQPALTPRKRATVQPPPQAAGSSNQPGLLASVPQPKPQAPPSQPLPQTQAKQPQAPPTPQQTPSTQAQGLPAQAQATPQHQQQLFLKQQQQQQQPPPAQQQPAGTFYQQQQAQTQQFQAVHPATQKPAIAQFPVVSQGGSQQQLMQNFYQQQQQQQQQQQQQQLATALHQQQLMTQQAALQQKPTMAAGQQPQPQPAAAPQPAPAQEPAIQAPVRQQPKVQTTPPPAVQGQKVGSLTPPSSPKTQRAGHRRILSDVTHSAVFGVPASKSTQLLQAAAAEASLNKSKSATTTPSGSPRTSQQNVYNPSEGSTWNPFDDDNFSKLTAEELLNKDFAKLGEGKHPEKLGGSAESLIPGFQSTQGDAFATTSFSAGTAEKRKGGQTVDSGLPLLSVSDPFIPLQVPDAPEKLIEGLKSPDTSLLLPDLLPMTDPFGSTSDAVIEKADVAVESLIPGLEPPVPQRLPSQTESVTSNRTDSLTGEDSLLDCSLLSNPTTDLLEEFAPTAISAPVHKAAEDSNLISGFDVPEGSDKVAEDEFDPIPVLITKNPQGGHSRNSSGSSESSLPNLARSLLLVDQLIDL
Chain of TNIK (Q9UKE5 whole entry): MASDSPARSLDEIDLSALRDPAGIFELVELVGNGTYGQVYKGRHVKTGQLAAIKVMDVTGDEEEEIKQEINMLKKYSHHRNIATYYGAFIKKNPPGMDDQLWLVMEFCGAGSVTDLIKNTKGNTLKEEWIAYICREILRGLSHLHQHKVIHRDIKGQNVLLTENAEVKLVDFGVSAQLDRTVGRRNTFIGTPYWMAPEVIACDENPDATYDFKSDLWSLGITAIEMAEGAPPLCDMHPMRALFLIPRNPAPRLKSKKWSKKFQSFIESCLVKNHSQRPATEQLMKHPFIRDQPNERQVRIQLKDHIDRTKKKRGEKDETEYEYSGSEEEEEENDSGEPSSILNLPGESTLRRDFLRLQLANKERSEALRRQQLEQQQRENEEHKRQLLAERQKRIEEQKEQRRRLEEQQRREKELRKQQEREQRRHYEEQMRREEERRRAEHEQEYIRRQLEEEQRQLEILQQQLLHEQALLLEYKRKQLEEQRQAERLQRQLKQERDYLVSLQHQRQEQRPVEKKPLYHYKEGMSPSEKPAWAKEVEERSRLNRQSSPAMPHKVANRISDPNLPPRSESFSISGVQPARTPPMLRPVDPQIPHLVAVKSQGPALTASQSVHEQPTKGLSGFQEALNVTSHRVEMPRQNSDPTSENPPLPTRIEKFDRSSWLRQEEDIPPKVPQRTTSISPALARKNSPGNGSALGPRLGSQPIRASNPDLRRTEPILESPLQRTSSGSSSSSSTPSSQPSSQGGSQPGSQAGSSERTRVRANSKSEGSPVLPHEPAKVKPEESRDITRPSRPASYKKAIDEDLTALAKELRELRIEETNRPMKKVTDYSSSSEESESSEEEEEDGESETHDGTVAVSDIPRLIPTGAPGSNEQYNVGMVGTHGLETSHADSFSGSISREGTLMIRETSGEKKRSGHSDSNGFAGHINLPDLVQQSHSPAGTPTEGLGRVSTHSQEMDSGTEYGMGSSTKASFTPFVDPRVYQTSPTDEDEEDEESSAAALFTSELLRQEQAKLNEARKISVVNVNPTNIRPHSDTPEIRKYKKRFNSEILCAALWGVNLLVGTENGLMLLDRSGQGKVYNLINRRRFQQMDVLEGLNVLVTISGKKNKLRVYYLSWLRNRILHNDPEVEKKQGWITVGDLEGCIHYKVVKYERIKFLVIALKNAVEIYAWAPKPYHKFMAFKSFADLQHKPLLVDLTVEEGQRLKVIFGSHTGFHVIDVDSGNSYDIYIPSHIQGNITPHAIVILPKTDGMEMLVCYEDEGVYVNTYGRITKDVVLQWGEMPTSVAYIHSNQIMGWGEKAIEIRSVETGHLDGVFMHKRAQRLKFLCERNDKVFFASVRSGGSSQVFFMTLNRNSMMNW
Chain of CLK2 (P49760 whole entry): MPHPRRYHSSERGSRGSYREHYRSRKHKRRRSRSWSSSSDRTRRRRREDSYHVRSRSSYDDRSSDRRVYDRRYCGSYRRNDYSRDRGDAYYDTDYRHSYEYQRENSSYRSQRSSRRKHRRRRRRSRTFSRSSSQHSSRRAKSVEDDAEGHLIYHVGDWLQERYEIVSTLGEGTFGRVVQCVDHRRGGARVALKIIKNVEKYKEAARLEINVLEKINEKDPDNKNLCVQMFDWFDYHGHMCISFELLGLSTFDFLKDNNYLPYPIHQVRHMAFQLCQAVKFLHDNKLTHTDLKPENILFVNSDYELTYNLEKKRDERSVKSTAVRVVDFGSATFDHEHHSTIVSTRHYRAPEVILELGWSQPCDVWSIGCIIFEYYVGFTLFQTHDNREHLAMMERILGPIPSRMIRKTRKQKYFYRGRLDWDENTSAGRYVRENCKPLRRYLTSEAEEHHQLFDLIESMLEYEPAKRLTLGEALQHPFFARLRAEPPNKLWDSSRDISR
Chain of PKN1 (Q16512 whole entry): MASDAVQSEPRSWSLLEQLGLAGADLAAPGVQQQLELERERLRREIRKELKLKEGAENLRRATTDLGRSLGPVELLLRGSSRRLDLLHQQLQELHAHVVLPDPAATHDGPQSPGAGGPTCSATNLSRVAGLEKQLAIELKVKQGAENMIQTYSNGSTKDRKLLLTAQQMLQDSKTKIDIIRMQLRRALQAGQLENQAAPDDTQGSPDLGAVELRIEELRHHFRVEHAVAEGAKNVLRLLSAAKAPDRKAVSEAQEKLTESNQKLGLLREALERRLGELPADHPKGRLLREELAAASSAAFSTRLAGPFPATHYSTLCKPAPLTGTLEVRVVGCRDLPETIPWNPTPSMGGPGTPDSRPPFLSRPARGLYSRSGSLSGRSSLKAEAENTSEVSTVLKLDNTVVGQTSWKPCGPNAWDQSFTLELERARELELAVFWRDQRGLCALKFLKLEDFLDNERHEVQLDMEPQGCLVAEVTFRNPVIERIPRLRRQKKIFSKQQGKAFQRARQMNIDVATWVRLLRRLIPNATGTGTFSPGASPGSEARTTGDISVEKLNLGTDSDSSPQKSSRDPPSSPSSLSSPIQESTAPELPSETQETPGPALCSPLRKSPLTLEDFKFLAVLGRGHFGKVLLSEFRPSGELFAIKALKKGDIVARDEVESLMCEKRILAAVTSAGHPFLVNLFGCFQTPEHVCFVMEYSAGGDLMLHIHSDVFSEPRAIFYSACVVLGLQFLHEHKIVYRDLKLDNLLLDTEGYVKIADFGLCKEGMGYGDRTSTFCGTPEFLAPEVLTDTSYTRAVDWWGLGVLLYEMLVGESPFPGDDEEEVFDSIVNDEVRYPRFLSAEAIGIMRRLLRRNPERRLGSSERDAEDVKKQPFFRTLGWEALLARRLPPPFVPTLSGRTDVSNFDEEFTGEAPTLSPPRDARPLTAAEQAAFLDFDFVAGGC
Chain of CHEK2 (O96017 whole entry): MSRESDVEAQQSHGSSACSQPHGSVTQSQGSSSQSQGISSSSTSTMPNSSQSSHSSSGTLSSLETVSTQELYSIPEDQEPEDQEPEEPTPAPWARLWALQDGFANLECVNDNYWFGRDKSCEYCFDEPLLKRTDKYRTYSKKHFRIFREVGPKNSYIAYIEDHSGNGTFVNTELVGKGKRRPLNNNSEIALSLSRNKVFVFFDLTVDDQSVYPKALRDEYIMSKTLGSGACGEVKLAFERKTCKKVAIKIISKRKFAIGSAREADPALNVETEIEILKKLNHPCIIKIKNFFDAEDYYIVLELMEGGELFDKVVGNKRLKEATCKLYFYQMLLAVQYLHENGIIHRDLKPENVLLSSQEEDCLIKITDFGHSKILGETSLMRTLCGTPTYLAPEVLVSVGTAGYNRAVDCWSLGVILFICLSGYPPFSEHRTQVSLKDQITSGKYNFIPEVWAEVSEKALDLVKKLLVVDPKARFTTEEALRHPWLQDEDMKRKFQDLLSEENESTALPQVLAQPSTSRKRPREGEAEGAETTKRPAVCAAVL

ΔTm inhibitor 1 (AAK1): 6.9 °C
ΔTm inhibitor 1 (CAMK1G): 0.6 °C
ΔTm inhibitor 1 (CDK16): 0.5 °C
ΔTm inhibitor 1 (CDK8): 2.7 °C
ΔTm inhibitor 1 (CHEK2): 0.8 °C
ΔTm inhibitor 1 (CLK2): 5.5 °C
ΔTm inhibitor 1 (CSNK1G1): 1.7 °C
ΔTm inhibitor 1 (CSNK2A1): 3.3 °C
ΔTm inhibitor 1 (DYRK2): 4.1 °C
ΔTm inhibitor 1 (MYLK4): 5.8 °C
ΔTm inhibitor 1 (PKN1): 1.7 °C
ΔTm inhibitor 1 (RPS6KA2): 2.7 °C
ΔTm inhibitor 1 (SRPK3): 0.4 °C
ΔTm inhibitor 1 (STK17B): 4.2 °C
ΔTm inhibitor 1 (STK26): 0.3 °C
ΔTm inhibitor 1 (TNIK): 1.2 °C
ΔTm inhibitor 1 (VRK2): 1.5 °C
ΔTm inhibitor 1 (ZAK): 1.4 °C
SMILES: CC(=O)c1cccc(-c2cnc3ccc(NCC4CC4)nn23)c1 [compound 1, K00135]

ΔTm inhibitor 2 (AAK1): 1.5 °C
ΔTm inhibitor 2 (CAMK1G): -0.1 °C
ΔTm inhibitor 2 (CDK16): -0.4 °C
ΔTm inhibitor 2 (CDK8): 0.1 °C
ΔTm inhibitor 2 (CHEK2): 0.1 °C
ΔTm inhibitor 2 (CLK2): 5.0 °C
ΔTm inhibitor 2 (CSNK1G1): 3.2 °C
ΔTm inhibitor 2 (CSNK2A1): 2.6 °C
ΔTm inhibitor 2 (DYRK2): 7.3 °C
ΔTm inhibitor 2 (MYLK4): 0.9 °C
ΔTm inhibitor 2 (PKN1): -0.5 °C
ΔTm inhibitor 2 (RPS6KA2): 0.4 °C
ΔTm inhibitor 2 (SRPK3): 0.0 °C
ΔTm inhibitor 2 (STK17B): 1.0 °C
ΔTm inhibitor 2 (STK26): -0.3 °C
ΔTm inhibitor 2 (TNIK): 0.1 °C
ΔTm inhibitor 2 (VRK2): 0.2 °C
ΔTm inhibitor 2 (ZAK): -0.3 °C
SMILES: CCN1/C(=C/C(C)=O)Sc2ccc(OC)cc21 [compound 2, TG003]

ΔTm inhibitor 4 (AAK1): 3.4 °C
ΔTm inhibitor 4 (CAMK1G): 0.3 °C
ΔTm inhibitor 4 (CDK16): 1.2 °C
ΔTm inhibitor 4 (CDK8): 1.9 °C
ΔTm inhibitor 4 (CHEK2): 0.5 °C
ΔTm inhibitor 4 (CLK2): 7.2 °C
ΔTm inhibitor 4 (CSNK1G1): 1.0 °C
ΔTm inhibitor 4 (CSNK2A1): 0.2 °C
ΔTm inhibitor 4 (DYRK2): 8.9 °C
ΔTm inhibitor 4 (MYLK4): 3.9 °C
ΔTm inhibitor 4 (PKN1): 0.4 °C
ΔTm inhibitor 4 (RPS6KA2): 1.0 °C
ΔTm inhibitor 4 (SRPK3): 0.2 °C
ΔTm inhibitor 4 (STK17B): 6.9 °C
ΔTm inhibitor 4 (STK26): 0.1 °C
ΔTm inhibitor 4 (TNIK): 1.2 °C
ΔTm inhibitor 4 (VRK2): 0.0 °C
ΔTm inhibitor 4 (ZAK): 0.3 °C
SMILES: Nc1nccc(-c2ccc3noc(-c4ccc(Cl)cc4)c3c2)n1 [compound 4, K00972]
